Bounds are passed on as bounds.

For one series, the species on record is Homo sapiens. Nature of the series: Protein binding in human plasma. The conditions noted are these: read-out: PB (converted).
The test system of a further series is A2780. Description: Mitotic arrest in human A2780 cells xenografted nude mouse assessed as induction of phospho-histone H3 at 3.5 mg/kg. In kind it is functional.
A short description of series [1]: Protein binding in mouse plasma. In kind it is ADME, cell-free. Particulars: read-out: PB (converted).
In another series the test system is KB 3-1. Nature of the series: Ratio of IC50 for KB-V-1 cells to IC50 for KB-3-1 cells. It is filed as functional, Homo sapiens.
Series [2] deals with T1, Kinesin-like protein KIF11 (Homo sapiens, UniProt P52732).
T1 sequence (P52732 whole entry): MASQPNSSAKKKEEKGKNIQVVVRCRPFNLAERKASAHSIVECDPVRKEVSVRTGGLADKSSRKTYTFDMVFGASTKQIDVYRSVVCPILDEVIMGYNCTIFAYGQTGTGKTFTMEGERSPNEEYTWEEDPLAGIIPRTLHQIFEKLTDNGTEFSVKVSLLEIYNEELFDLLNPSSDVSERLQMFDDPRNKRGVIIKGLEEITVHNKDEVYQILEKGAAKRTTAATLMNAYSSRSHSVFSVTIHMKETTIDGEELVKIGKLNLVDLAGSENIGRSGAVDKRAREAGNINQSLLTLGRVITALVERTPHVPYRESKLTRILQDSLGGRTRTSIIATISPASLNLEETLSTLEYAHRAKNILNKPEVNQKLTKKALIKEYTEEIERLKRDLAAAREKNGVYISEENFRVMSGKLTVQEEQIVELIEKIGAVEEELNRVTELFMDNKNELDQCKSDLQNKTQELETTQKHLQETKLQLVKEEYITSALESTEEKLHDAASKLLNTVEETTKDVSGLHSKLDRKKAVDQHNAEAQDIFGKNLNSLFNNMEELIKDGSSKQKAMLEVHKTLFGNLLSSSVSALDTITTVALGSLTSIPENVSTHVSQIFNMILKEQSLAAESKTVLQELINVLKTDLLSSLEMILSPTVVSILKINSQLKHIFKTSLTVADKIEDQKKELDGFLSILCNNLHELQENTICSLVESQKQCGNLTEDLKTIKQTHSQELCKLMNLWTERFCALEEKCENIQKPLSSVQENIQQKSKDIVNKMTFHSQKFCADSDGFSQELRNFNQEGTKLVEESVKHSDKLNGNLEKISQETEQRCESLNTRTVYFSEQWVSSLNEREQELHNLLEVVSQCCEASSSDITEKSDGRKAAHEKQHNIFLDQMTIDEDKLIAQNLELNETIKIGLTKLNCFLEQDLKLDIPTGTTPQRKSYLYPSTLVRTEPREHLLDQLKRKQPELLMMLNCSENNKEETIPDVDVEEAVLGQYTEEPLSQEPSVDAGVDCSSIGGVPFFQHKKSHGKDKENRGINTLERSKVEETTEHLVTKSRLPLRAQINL
Description: Inhibition of kinesin spindle protein by ATPase assay.

Series [3] deals with T1, Kinesin-like protein KIF11. Description: Inhibition of KSP-induced nucleolin phosphorylation in cell-based mitotic arrest assay. In kind it is functional.
Series [4] deals with Voltage-gated inwardly rectifying potassium channel KCNH2 (Homo sapiens, UniProt Q12809). Description: Inhibition of hERG expressed in HEK cells. It is filed as toxicity, cell-based, HEK293.
Voltage-gated inwardly rectifying potassium channel KCNH2, sequence (Q12809 whole entry): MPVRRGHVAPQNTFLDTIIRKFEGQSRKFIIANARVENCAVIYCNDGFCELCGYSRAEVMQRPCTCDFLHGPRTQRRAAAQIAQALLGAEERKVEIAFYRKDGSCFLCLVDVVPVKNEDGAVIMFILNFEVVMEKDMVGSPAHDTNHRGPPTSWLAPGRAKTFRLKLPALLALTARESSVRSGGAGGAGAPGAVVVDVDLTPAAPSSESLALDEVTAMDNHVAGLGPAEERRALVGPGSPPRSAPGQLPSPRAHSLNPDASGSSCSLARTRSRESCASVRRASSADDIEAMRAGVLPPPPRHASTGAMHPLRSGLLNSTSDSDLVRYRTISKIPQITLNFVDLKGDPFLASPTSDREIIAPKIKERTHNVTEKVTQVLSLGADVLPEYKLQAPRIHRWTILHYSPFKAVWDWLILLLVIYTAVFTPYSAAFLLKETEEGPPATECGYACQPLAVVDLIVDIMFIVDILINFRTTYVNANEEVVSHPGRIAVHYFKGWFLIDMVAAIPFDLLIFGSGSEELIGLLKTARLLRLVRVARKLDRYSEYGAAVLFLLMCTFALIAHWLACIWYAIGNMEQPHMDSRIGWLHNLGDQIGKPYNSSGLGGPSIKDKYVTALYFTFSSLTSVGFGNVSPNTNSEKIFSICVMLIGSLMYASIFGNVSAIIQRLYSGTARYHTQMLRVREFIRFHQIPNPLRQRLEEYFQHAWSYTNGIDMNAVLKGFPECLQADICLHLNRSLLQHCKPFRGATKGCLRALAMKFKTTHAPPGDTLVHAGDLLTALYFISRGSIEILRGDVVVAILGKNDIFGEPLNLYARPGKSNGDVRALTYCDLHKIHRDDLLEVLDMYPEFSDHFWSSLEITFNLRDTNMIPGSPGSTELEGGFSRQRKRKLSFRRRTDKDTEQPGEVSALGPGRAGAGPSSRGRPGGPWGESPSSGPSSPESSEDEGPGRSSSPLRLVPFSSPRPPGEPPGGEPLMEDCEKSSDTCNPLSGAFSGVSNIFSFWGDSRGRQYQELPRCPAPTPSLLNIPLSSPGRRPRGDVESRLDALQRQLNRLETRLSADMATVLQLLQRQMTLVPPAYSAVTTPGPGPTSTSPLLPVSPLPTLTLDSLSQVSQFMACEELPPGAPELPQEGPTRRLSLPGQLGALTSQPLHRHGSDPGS
Series [5] can be described thus: Solubility at pH 4. It is filed as physicochemical. Particulars: buffer.

As for `CC(=O)C1=NN(c2cc(C)ccc2F)C[C@@]1(CCCN(C)C)c1ccccc1`, the fraction unbound in the series filed under Homo sapiens is 0.04; in series [1], 0.07. Moreover, the concentration for an effect of 99% (EC99) with A2780 came out at 67 nM. Also, the “Ratio IC50” value in the series with KB 3-1 was 1.6. In addition, the IC50 stood at 0.2 nM in series [2] and 3040 nM in series [4]. The compound further came in with an EC50 in series [3] of 3.2 nM. The same compound displayed a solubility in series [5] above 4000 µg/mL.

Turning to `CC(=O)C1=NN(c2cc(F)ccc2F)CC1(CCCN1CCN(C(C)=O)CC1)c1ccccc1` (racemic), it took 3.8 nM to reach half-maximal inhibition in series [2] (IC50). The compound further had an EC50 in series [3] of 78 nM.

`CC(=O)C1=NN(c2cc(F)ccc2F)CC1(CCCN1CC(F)C1)c1ccccc1` (racemic): 5.2 nM corresponded to half-maximal inhibition in series [2] (IC50). The EC50 in series [3] was 40 nM.

Turning to `CC(=O)C1=NN(c2cc(F)ccc2F)CC1(CCCN1CCCC1)c1ccccc1` (racemic), the IC50 in series [2] was 3.8 nM. It took 15 nM to reach a half-maximal effect in series [3] (EC50).

`CC(=O)C1=NN(c2cc(Cl)ccc2F)CC1(CCCN1CCN(C(C)=O)CC1)c1ccccc1` (racemic) registered an IC50 in series [2] of 3.9 nM. Moreover, in series [3], it took 46 nM to reach a half-maximal effect (EC50).

`CC(=O)C1=NN(c2cc(C)ccc2F)CC1(CCCN1CCN(C(C)=O)CC1)c1ccccc1` (racemic) registered an IC50 in series [2] of 2 nM. The EC50 in series [3] turned out to be 27 nM.

The compound `CC(=O)C1=NN(c2cc(C(F)(F)F)ccc2F)CC1(CCCN1CCN(C(C)=O)CC1)c1ccccc1` (racemic) gave an IC50 in series [2] of 10.1 nM. This compound also registered a concentration giving a half-maximal response (EC50) in series [3] of 208 nM.

For the compound `CC(=O)C1=NN(c2cc(Br)ccc2F)CC1(CCCN1CCN(C(C)=O)CC1)c1ccccc1` (racemic), in series [2], the IC50 is 4.7 nM. In series [3], this compound returned an EC50 of 38 nM.

In series [2], `CC(=O)C1=NN(c2cc(F)ccc2F)CC1(CCCN1CCOCC1)c1ccccc1` (racemic) displayed an IC50 of 4.2 nM. For the same compound, in series [3], the EC50 was found to be 53 nM.

On to `CC(=O)C1=NN(c2ccccc2F)CC1(CCCN1CCN(C(C)=O)CC1)c1ccccc1` (racemic), for which the IC50 in series [2] was 21.8 nM. The compound also yielded an EC50 in series [3] of 368 nM.

The compound `CC(=O)C1=NN(c2cc(F)ccc2F)CC1(CCCN1CCS(=O)(=O)CC1)c1ccccc1` (racemic) returned an IC50 in series [2] of 16.5 nM. This compound also displayed an EC50 in series [3] of 138 nM.

For `CC(=O)C1=NN(c2cc(F)ccc2F)CC1(CCCN(C)Cc1cc(C)no1)c1ccccc1` (racemic), the 50% inhibitory concentration (IC50) in series [2] was 4 nM. In addition, a half-maximal response in series [3] (EC50) required 567 nM.

For the compound `CC(=O)C1=NN(c2cc(F)ccc2F)CC1(CCCN1CC2CC1CO2)c1ccccc1` (racemic), the IC50 in series [2] worked out at 1.2 nM. In series [3], this compound returned an EC50 of 11 nM.

As for `CC(=O)C1=NN2c3cc(F)ccc3OC[C@H]2[C@@]1(CCCN1CCN(C(C)=O)CC1)c1ccccc1`, in the series with A2780, the EC99 is given as 100 nM. In series [3], this compound returned an EC50 of 5 nM. The compound also had a solubility in series [5] above 4000 µg/mL.

Regarding `CC(=O)C1=NN(c2cc(F)ccc2F)CC1(CCCN(C)C)c1ccccc1` (racemic), half-maximal inhibition in series [2] (IC50) required 2.1 nM. It took 9.4 nM to reach a half-maximal effect in series [3] (EC50).

Usually EC99 stands for the point of the concentration-response curve where the effect stands at 99%. Usually IC50 stands for the point on the concentration scale where inhibition reaches its midpoint. Usually EC50 stands for the concentration that produces a half-maximal response. One may read the solubility as the concentration that dissolves in the medium under given conditions. Lower therefore signals a poorly soluble substance.

Source of the values: ChEMBL document CHEMBL1139812, “Kinesin spindle protein (KSP) inhibitors. Part 8: Design and synthesis of 1,4-diaryl-4,5-dihydropyrazoles as potent inhibitors of the mitotic kinesin KSP” (Bioorg Med Chem Lett, 2007).
